In ChEMBL document CHEMBL5360557 (Eur J Med Chem, 2023):

Key:
Cholinesterase [1] = biological target: T1, Cholinesterase (Homo sapiens, UniProt P06276); test: Inhibition of recombinant human BuChE using butyrylthiocholine iodide as substrate at 10 uM preincubated with enzyme for 5 mins followed by substrate addition and measured after 1 min by Ellman's method relative to control; conditions: time 6.0 min
Acetylcholinesterase [2] = biological target: T2, Acetylcholinesterase (Homo sapiens, UniProt P22303); test: Inhibition of recombinant human AChE using acetylthiocholine iodide as substrate preincubated with enzyme for 5 mins followed by substrate addition and measured after 1 min by Ellman's method
Cholinesterase [3] = biological target: T1, Cholinesterase; test: Inhibition of recombinant human BuChE using butyrylthiocholine iodide as substrate preincubated with enzyme for 5 mins followed by substrate addition and measured after 1 min by Ellman's method
[4] = Cytotoxicity against human SH-SY5Y cells assessed as inhibition of cell growth incubated for 24 hrs by MTT assay; type: toxicity, cell-based
[5] = Cytotoxicity against human HepG2 cells assessed as inhibition of cell growth incubated for 24 hrs by MTT assay; type: toxicity, cell-based
in vitro = conditions: PAMPA
Description: Permeability of the compound incubated for 3 to 6 hrs by PAMPA-BBB assay

Acetylcholinesterase [6] = biological target: T2, Acetylcholinesterase; test: Inhibition of human AChE using acetylthiocholine iodide as substrate incubated for 1 min by spectrophotometry based Ellman's method
Cholinesterase [7] = biological target: T1, Cholinesterase; test: Inhibition of human BuChE using butyrylthiocholine iodide as substrate incubated for 1 min by spectrophotometry based Ellman's method
Homo sapiens = species: Homo sapiens; test: Selectivity ratio of IC50 for inhibition of human AChE using acetylthiocholine as substrate to IC50 for inhibition of human BuChE using butyrylthiocholine iodide as substrate

T1 sequence (P06276 whole entry): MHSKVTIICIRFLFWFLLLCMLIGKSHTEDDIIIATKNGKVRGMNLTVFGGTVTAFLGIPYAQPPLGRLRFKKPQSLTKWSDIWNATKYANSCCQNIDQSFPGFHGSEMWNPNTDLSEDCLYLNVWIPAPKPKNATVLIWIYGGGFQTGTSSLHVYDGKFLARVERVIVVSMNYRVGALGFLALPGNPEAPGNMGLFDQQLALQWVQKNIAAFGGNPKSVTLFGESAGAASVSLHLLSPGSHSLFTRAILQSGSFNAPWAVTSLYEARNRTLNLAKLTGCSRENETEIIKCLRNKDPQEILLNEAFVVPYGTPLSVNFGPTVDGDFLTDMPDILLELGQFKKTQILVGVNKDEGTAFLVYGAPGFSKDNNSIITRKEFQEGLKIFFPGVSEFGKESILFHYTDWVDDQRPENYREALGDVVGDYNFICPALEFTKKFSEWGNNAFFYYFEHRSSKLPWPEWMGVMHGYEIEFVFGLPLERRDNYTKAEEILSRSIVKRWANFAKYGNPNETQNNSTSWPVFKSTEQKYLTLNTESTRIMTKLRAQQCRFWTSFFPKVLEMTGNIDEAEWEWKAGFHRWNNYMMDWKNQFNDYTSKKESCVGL
T2 sequence (P22303 whole entry): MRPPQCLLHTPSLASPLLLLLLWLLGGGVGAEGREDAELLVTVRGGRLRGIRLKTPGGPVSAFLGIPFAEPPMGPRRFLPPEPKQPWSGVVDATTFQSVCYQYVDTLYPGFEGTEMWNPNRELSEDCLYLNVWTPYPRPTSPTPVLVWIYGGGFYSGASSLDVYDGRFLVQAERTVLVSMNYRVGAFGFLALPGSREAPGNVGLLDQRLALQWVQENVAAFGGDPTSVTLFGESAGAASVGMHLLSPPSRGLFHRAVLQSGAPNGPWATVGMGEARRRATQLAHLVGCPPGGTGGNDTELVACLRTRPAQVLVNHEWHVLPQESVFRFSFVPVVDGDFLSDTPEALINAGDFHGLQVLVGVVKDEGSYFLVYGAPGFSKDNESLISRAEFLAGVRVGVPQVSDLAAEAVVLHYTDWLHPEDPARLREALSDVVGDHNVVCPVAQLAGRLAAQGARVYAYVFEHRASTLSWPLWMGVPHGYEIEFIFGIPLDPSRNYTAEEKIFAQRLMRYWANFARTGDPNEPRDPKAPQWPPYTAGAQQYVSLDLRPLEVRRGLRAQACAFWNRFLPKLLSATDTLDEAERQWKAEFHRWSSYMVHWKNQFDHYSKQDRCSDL

SMILES | inhibition (Cholinesterase [1]) | IC50 (Acetylcholinesterase [2]) | IC50 (Cholinesterase [3]) | IC50 at 24 h [4] | IC50 at 24 h [5] | Papp (in vitro) | IC50 (Acetylcholinesterase [6]) | IC50 (Cholinesterase [7]) | Ratio IC50 (Homo sapiens)
CCCN(CCc1ccccc1)Cc1cccc(OC)c1OCc1ccccc1 | 91% | > 10 µM | 0.5 µM |  |  |  |  |  | 
CCN(CCc1ccc(OC)cc1)Cc1cccc(OC)c1OCc1ccccc1 | 77% | > 10 µM | 2.5 µM |  |  |  |  |  | 
COc1ccc(CCN(C)Cc2cccc(OC)c2OCc2ccccc2)cc1 | 76% | > 10 µM | 3.2 µM |  |  |  |  |  | 
C#CCN(CCc1ccc(O)cc1)Cc1cccc(OC)c1OCc1ccccc1 | 78% | > 10 µM | 1.9 µM |  |  |  |  |  | 
CCCN(CCCc1ccc(O)cc1)Cc1cccc(OC)c1OCc1ccccc1 | 98% | > 10 µM | 0.07 µM | 44 µM | 31 µM | 16 ×10⁻⁶ cm/s |  |  | 
CCCN(CCc1ccccc1OC)Cc1cccc(OC)c1OCc1ccccc1 | 92% | > 10 µM | 0.7 µM |  |  |  |  |  | 
CCOc1ccc(CCN(CC)Cc2cccc(OC)c2OCc2ccccc2)cc1 | 84% | > 10 µM | 0.9 µM |  |  |  |  |  | 
C=CCN(CCc1ccc(O)cc1)Cc1cccc(OC)c1OCc1ccccc1 | 96% | > 10 µM | 0.3 µM |  |  |  |  |  | 
CCCN(CCCc1cccc(O)c1)Cc1cccc(OC)c1OCc1ccccc1 | 96% | > 10 µM | 0.16 µM |  |  |  |  |  | 
COc1ccc(CCNCc2cccc(OC)c2OCc2ccccc2)cc1 | 94% | > 10 µM | 0.4 µM |  |  |  |  |  | 
C=CCN(CCc1cccc(OC)c1)Cc1cccc(OC)c1OCc1ccccc1 | 76% | > 10 µM | 1.5 µM |  |  |  |  |  | 
COc1cccc(CN(CCCc2ccccc2F)C2CCCC2)c1OCc1ccccc1 | 99% | > 10 µM | 0.006 µM | 55 µM | 28 µM | 61 ×10⁻⁶ cm/s |  |  | 
CN(CCc1ccc(O)cc1)Cc1cc2c(cc1-c1cccc3c1N(C)CC3)OCO2 |  |  |  |  |  |  | > 100 µM |  | 
C#CCN(CCCc1ccccc1)Cc1cccc(OC)c1OCc1ccccc1 | 76% | > 10 µM | 0.23 µM |  |  |  |  |  | 
COc1cc(CN(C)CCc2ccc(O)cc2)c(-c2cccc3c2N(C)CC3)cc1OC |  |  |  |  |  |  | > 100 µM | 0.91 µM | 
COc1cccc(CNCCc2ccccc2)c1OCc1ccccc1 | 93% | > 10 µM | 0.4 µM |  |  |  |  |  | 
C=CCCN(CCCc1ccccc1)Cc1cccc(OC)c1OCc1ccccc1 | 97% | > 10 µM | 0.07 µM | 131 µM | 92 µM | 33 ×10⁻⁶ cm/s |  |  | 
C=CCN(CCCc1ccccc1)Cc1cccc(OC)c1OCc1ccccc1 | 98% | > 10 µM | 0.04 µM | > 200 µM | > 200 µM | 28 ×10⁻⁶ cm/s |  |  | 
C=CCN(CCc1ccccc1)Cc1cccc(OC)c1OCc1ccccc1 | 88% | > 10 µM | 0.4 µM |  |  |  |  |  | 
COc1ccc2c3c1O[C@H]1C[C@@H](O)C=C[C@@]31CCN(C)C2 [GALANTAMINE] |  |  |  | 4700 µM | 4200 µM |  |  |  | 

SMILES | inhibition (Cholinesterase [1]) | IC50 (Acetylcholinesterase [2]) | IC50 (Cholinesterase [3]) | IC50 at 24 h [4] | IC50 at 24 h [5] | Papp (in vitro) | IC50 (Acetylcholinesterase [6]) | IC50 (Cholinesterase [7]) | Ratio IC50 (Homo sapiens)
CO/N=C(\C(=O)N[C@@H]1C(=O)N2C(C(=O)O)=C(COC(N)=O)CS[C@H]12)c1ccco1 [CEFUROXIME] |  |  |  |  |  | 0.6 ×10⁻⁶ cm/s |  |  | 
COc1cccc(CNCCCCc2ccccc2)c1OCc1ccccc1 | 94% | > 10 µM | 0.2 µM |  |  |  |  |  | 
C#CCN(CCc1ccc(OC)cc1)Cc1cccc(OC)c1OCc1ccccc1 | 66% | > 10 µM | 1.3 µM |  |  |  |  |  | 
COc1cccc(CNCC(C)c2ccccc2)c1OCc1ccccc1 (stereo not drawn) | 96% | > 10 µM | 0.16 µM |  |  |  |  |  | 
COc1cccc(CNCCc2ccc(O)cc2)c1OCc1ccccc1 | 94% | > 10 µM | 0.2 µM |  |  | 19 ×10⁻⁶ cm/s |  |  | > 42
CCN(CCCc1ccccc1)Cc1cccc(OC)c1OCc1ccccc1 | 98% | > 10 µM | 0.06 µM | 34 µM | 23 µM |  |  |  | 
CCCCCCN(CCCCc1ccccc1)Cc1cccc(OC)c1OCc1ccccc1 | 78% | > 10 µM | 0.7 µM |  |  |  |  |  | 
CCCCCCCCCCCCCCN(CCCCc1ccccc1)Cc1cccc(OC)c1OCc1ccccc1 | 25% | > 10 µM | > 10 µM |  |  |  |  |  | 
COc1ccccc1CCN(C)Cc1cccc(OC)c1OCc1ccccc1 | 85% | > 10 µM | 0.8 µM |  |  |  |  |  | 
C#CCN(CCc1ccc(OCC=C)cc1)Cc1cccc(OC)c1OCc1ccccc1 | 42% | > 10 µM | > 10 µM |  |  |  |  |  | 
CCCN(CCc1cccc(OC)c1)Cc1cccc(OC)c1OCc1ccccc1 | 89% | > 10 µM | 0.9 µM |  |  |  |  |  | 
COc1cccc(CNCCCc2ccccc2)c1OCc1ccccc1 | 97% | > 10 µM | 0.09 µM | 8.9 µM |  | 21 ×10⁻⁶ cm/s |  |  | 
COc1cccc(CN(CCCCc2ccccc2)CCCC(C)C)c1OCc1ccccc1 | 87% | > 10 µM | 0.29 µM |  |  |  |  |  | 
COc1ccccc1CCNCc1cccc(OC)c1OCc1ccccc1 | 88% | > 10 µM | 0.8 µM |  |  |  |  |  | 
COc1cccc(CNC(C)CCc2ccccc2)c1OCc1ccccc1 (stereo not drawn) | 97% | > 10 µM | 0.13 µM |  |  |  |  |  | 
C#CCN(CCc1cccc(OC)c1)Cc1cccc(OC)c1OCc1ccccc1 | 28% | > 10 µM | > 10 µM |  |  |  |  |  | 
C#CCN(CCc1ccccc1OC)Cc1cccc(OC)c1OCc1ccccc1 | 35% | > 10 µM | > 10 µM |  |  |  |  |  | 
C#CCOc1ccc(CCN(CC#C)Cc2cccc(OC)c2OCc2ccccc2)cc1 | 72% | > 10 µM | 0.2 µM |  |  |  |  |  | 
CCCN(CCCc1ccccc1O)Cc1cccc(OC)c1OCc1ccccc1 | 95% | > 10 µM | 0.22 µM |  |  |  |  |  | 
CCN(CCc1ccccc1)Cc1cccc(OC)c1OCc1ccccc1 | 91% | > 10 µM | 0.6 µM |  |  |  |  |  | 

SMILES | inhibition (Cholinesterase [1]) | IC50 (Acetylcholinesterase [2]) | IC50 (Cholinesterase [3]) | IC50 at 24 h [4] | IC50 at 24 h [5] | Papp (in vitro) | IC50 (Acetylcholinesterase [6]) | IC50 (Cholinesterase [7]) | Ratio IC50 (Homo sapiens)
CCCN(CCc1ccc(O)cc1)Cc1cccc(OC)c1OCc1ccccc1 | 95% | > 10 µM | 0.09 µM | 44 µM | 43 µM | 14 ×10⁻⁶ cm/s |  |  | 
COc1cccc(/C=N/CCc2ccc(O)cc2)c1OCc1ccccc1 | 48% | > 10 µM | 8 µM |  |  |  |  |  | 
CCCCCCN(CCCc1ccccc1)Cc1cccc(OC)c1OCc1ccccc1 | 95% | > 10 µM | 0.04 µM | 110 µM | 106 µM | 9 ×10⁻⁶ cm/s |  |  | 
CCCN(CCCc1cccc(F)c1)Cc1cccc(OC)c1OCc1ccccc1 | 97% | > 10 µM | 0.039 µM | 123 µM | 41 µM | 27 ×10⁻⁶ cm/s |  |  | 
C=CCOc1ccc(CCN(CC=C)Cc2cccc(OC)c2OCc2ccccc2)cc1 | 71% | > 10 µM | 1.3 µM |  |  |  |  |  | 
CCCN(CCCc1ccccc1F)Cc1cccc(OC)c1OCc1ccccc1 | 97% | > 10 µM | 0.02 µM | 49 µM | 33 µM | 85 ×10⁻⁶ cm/s |  |  | 
C#CCN(CCc1ccccc1)Cc1cccc(OC)c1OCc1ccccc1 | 46% | > 10 µM | > 10 µM |  |  |  |  |  | 
CCN(CCc1ccccc1OC)Cc1cccc(OC)c1OCc1ccccc1 | 94% | > 10 µM | 0.7 µM |  |  |  |  |  | 
C=CCN(CCc1ccccc1OC)Cc1cccc(OC)c1OCc1ccccc1 | 90% | > 10 µM | 0.3 µM |  |  |  |  |  | 
CCN(CCc1ccc(O)cc1)Cc1cccc(OC)c1OCc1ccccc1 | 94% | > 10 µM | 0.3 µM |  |  |  |  |  | 
CCCN(CCCc1ccccc1)Cc1cccc(OC)c1OCc1ccccc1 | 98% | > 10 µM | 0.04 µM | > 63 µM | 48 µM | 32 ×10⁻⁶ cm/s |  |  | 
CCCN(CCc1ccc(OC)cc1)Cc1cccc(OC)c1OCc1ccccc1 | 82% | > 10 µM | 1.4 µM |  |  |  |  |  | 
CCN(CCc1cccc(OC)c1)Cc1cccc(OC)c1OCc1ccccc1 | 88% | > 10 µM | 0.9 µM |  |  |  |  |  | 
CCCN(CCCc1ccc(F)cc1)Cc1cccc(OC)c1OCc1ccccc1 | 96% | > 10 µM | 0.1 µM | 170 µM | 32 µM | 61 ×10⁻⁶ cm/s |  |  | 
COc1cccc(CCNCc2cccc(OC)c2OCc2ccccc2)c1 | 77% | > 10 µM | 2.5 µM |  |  |  |  |  | 
C#CCOc1ccc(CCN(CC=C)Cc2cccc(OC)c2OCc2ccccc2)cc1 | 64% | > 10 µM | 2.2 µM |  |  |  |  |  | 
CCCN(C/C=C/c1ccccc1)Cc1cccc(OC)c1OCc1ccccc1 | 97% | > 10 µM | 0.04 µM | 174 µM | 36 µM | 41 ×10⁻⁶ cm/s |  |  | 
COc1cccc(CNCc2ccccc2)c1OCc1ccccc1 | 78% | > 10 µM | 1.5 µM |  |  |  |  |  | 
C=CCN(CCc1ccc(OC)cc1)Cc1cccc(OC)c1OCc1ccccc1 | 72% | > 10 µM | 2 µM |  |  |  |  |  | 
COc1cccc(CN(C)CCCc2ccccc2)c1OCc1ccccc1 | 97% | > 10 µM | 0.1 µM |  |  |  |  |  | 
